The assay addresses T1, 20S proteasome, chymotrypsin-like activity (β5 subunit) (Oryctolagus cuniculus, UniProt G1T4Q9).
T1 sequence (G1T4Q9 1-263): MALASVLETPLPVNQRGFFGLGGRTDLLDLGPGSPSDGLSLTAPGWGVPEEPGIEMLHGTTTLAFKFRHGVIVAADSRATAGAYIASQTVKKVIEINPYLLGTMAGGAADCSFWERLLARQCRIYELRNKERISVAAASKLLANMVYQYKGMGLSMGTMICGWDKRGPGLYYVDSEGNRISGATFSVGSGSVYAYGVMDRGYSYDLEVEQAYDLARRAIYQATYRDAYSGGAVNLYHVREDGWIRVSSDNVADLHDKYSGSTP
Description: fluorogenic Suc-LLVY-AMC hydrolysis by purified […] proteasome, […] h. The assay is classed as biochemical.

As for `CC(C)[C@H]1C(=O)[O][Cu-3]23([O]c4ccc5ccccc5c4C=[N+]12)[n+]1ccccc1-c1cccc[n+]13` [C4, [Cu(L2)(Bpy)]·3H2O], the midpoint of inhibition, the IC50, lay at 42.5 µM.
In the case of `COc1cccc2c1[O][Cu-3]13([O]C(=O)[C@H](CCSC)[N+]1=C2)[n+]1ccccc1-c1cccc[n+]13` [C2, [Cu(L1)(Bpy)]·3H2O], the IC50 (in general, the point on the concentration scale where inhibition reaches its midpoint) was found to be 46.5 µM.
With `COc1cccc2c1[O][Cu-3]13([O]C(=O)C(CCSC)[N+]1=C2)[n+]1cccc2ccc4ccc[n+]3c4c21` (stereo not shown) [C1, [Cu(L1)(Phen)]·9H2O] the figure was 13.3 µM; with `CC(C)[C@H]1C(=O)[O][Cu-3]23([O]c4ccc5ccccc5c4C=[N+]12)[n+]1cccc2ccc4ccc[n+]3c4c21` [C3, [Cu(L2)(Phen)]·3H2O], 11.3 µM.

Values taken from publication PMC3676669 (Journal of inorganic biochemistry, 2012).
